US20120004129A1, “BIOMARKERS FOR INHIBITORS WITH ANTI-ANGIOGENIC ACTIVITY” (Merck Patent GmbH, priority 2008, published 2012)

Experiments:
STC-1 = STC-1 protein in HUVEC supernatants by Western blotting; format: cell-based, human; details: vitronectin-coated dishes
Protocol: (§1) Since secreted biomarkers are relevant, the individual candidates were analysed in supernatants of integrin-inhibitor treated cells. HUVEC were treated either DI-17E6 or cilengitide. After different times, culture supernatants were collected and analysed for different biomarker candidates by Western blotting, ELISA or Luminex. Drug-induced biomarker regulation was evaluated in comparison to control cells.
Culture supernatants were collected analysed for STC-1 by Western blotting. […] B) Regulation of STC-1 in response to cilengitide (FIG. 4).
(§2) HUVECs were cultured o/n in vitronectin-coated dishes and incubated with different concentration of Sutent or Sorafenib for 6 h to 48 h. Culture supernatants were collected analysed for STC-1 by Western blotting. A) Regulation of STC-1 in response to Sutent. B) Regulation of STC-1 in response to Sorafenib (FIG. 10).

[1] = phase II trial; cited from earlier work
IL-8 = IL-8 in HUVEC supernatants by Luminex; format: cell-based, human; details: vitronectin-coated dishes
Protocol: as §1
Culture supernatants were collected analysed for IL-8 by Luminex. […] B) Regulation of IL-8 in response to cilengitide (FIG. 6).
as §2, with “IL-8” for “STC-1”, “Luminex.” for “Western blotting.”, “12).” for “10).”

[2] = system: Xenograft models of colon, breast, and non-small cell lung cancer (NSCLC); details: cited from earlier work
EDN1 = EDN1 in HUVEC supernatants by ELISA; format: cell-based, human; details: vitronectin-coated dishes
Protocol: as §1
Culture supernatants were collected analysed for EDN1 by ELISA. […] B) Regulation of EDN1 in response to cilengitide (FIG. 8).
as §2, with “EDN1” for “STC-1”, “ELISA.” for “Western blotting.”, “11).” for “10).”

[3] = phase III, cytokine-refractory advanced renal carcinoma patients; cited from earlier work
activin A = test: Activin A in HUVEC supernatants by ELISA; format: cell-based, human; details: vitronectin-coated dishes, 6 h to 72 h
Protocol: as §1
Culture supernatants were collected analysed for activin A by ELISA. […] B) Regulation of activin A in response to cilengitide (FIG. 9).

MCP-1 = MCP-1 in HUVEC supernatants by Luminex; format: cell-based, human; details: vitronectin-coated dishes, 6 h to 72 h
Protocol: as §1
Culture supernatants were collected analysed for MCP-1 by Luminex. […] B) Regulation of MCP-1 in response to cilengitide (FIG. 5).

PDGF-BB = PDGF-BB in HUVEC supernatants by ELISA; format: cell-based, human; details: vitronectin-coated dishes, 6 h to 72 h
Protocol: as §1
Culture supernatants were collected analysed for PDGF-BB by ELISA. […] B) Regulation of PDFG-BB in response to cilengitide (FIG. 7).

ADAMTS1 = ADAMTS1 protein in HUVEC supernatants by Western blotting; format: cell-based, human; details: vitronectin-coated dishes, 6 h to 72 h, vs control cells
Protocol: as §1
Culture supernatants were collected analysed for ADAMTS1 by Western blotting.
HUVECs were cultured o/n in vitronectin-coated dishes and incubated with different concentration of cilengitide for 6 h to 72 h. Culture supernatants were collected analysed for ADAMTS1 by Western blotting. A) Cilengitide mediated regulation of ADAMTS1 (65 kD and 85 kD). (FIG. 3).

HUVEC = test: Gene expression profiles of HUVEC after drug treatment (Affymetrix microarrays); format: cell-based, human; details: drug-treated vs non-treated or control-treated cells, filtered for secreted candidates
Source text: (§3) Gene expression profiles were generated from experiments with each condition being tested in triplicates. For this, RNA was extracted from treated and control cells and hybridized to genome-wide Affymetrix oligonucleotide microarrays to generate gene expression profiles. After preprocessing with the GCRMA algorithm (Wu Z, Journal American Statistical Association 2004; 99: 909-917), Affymetrix GeneChip data were filtered to exclude probe sets with low variability, low signal or poor probe annotation. Genes were specifically filtered to obtain secreted candidates that might be detectable in body fluids in humans and could be monitored in a non-invasive way in patients.

FAK = test: Western blot of integrin signalling in HUVEC plated on vitronectin: FAK; format: cell-based, human; details: for phosphorylation of FAK: HUVEC, Western blot, following treatment
Protocol: as §3, with “To identify biomarkers associated with treatment, HUVEC were treated with cilengitide or DI-17E6. […] Gene expression” for “Gene expression”, “in patients. […] Genes which show under the given condition an extraordinary response / response change/responsiveness are underlined.” for “in patients.”
(§4) Besides growth factor stimulation, integrin-mediated adhesion to the extracellular matrix is important to promote cell proliferation, survival, and migration. Upon integrin ligation a wide range of intracellular signaling events are induced, including activation of Ras, MAPK, FAK, Src, Rac/Rho/cdc42 GTPases. To support survival of endothelial cells during angiogenesis, integrins alpha(V) beta(3)/(5) together with FAK are required for a sustained activation of the MAPK cascade (i.e. ERK1/2). […] After 24 h of treatment, cell lysates were prepared and analysed by Western blotting. Effects on signaling pathways were evaluated by comparing the ratio of phosphorylated to total levels of the respective signaling molecule in order to account for potential effects arising from cell detachment.

ERK1/2 = test: Western blot of integrin signalling in HUVEC plated on vitronectin: MAPK (ERK1/2); format: cell-based, human; details: for phosphorylation of MAPK: HUVEC, Western blot, following treatment
Protocol: as §3, with “To identify biomarkers associated with treatment, HUVEC were treated with cilengitide or DI-17E6. […] Gene expression” for “Gene expression”, “in patients. […] Genes which show under the given condition an extraordinary response / response change/responsiveness are underlined.” for “in patients.”
as §4

[4] = system: angiogenesis in matrigel plugs; test: bFGF-induced angiogenesis in matrigel plugs in monkeys (hemoglobin content); format: in vivo, Cynomolgus monkeys; details: single i.v. infusion at 100, 30, 10, or 3 mg/kg; after 6 days; 5 μg/mL bFGF
Protocol: In this model, angiogenesis was induced in matrigel plugs by the angiogenic growth factor bFGF. Matrigel plugs containing bFGF were implanted subcutan into the abdomen of healthy Cynomologus monkeys, and the animals were injected with DI-17E6 i.v. at different doses immediately thereafter. Evaluation of angiogenesis was carried out after matrigel implantation by quantification of the hemoglobin content in the matrigel plugs. Each condition was tested in different animals implanted with matrigel plugs.
Angiogenesis was induced in subcutaneous matrigel implants containing 5 μg/mL of bFGF in Cynomolgus monkeys. […] After 6 days, angiogenesis was quantified by measuring the hemoglobin content in the matrigel plugs. * denotes a p-value <0.05 and ** denotes a p-value <0.01 (FIG. 13).

IL-6 = test: Plasma IL-6 by Luminex in monkeys with matrigel plugs; format: in vivo, Cynomolgus monkeys; details: DI-17E6-treated vs placebo-treated animals, 6 days
Source text: A) Regulation of CRP. B) Regulation of IL-6 (FIG. 14).

CRP = details: DI-17E6-treated vs placebo-treated animals, 6 days
Protocol: Absolute concentrations of different proteins were measured by Luminex by comparing to respective standards.
Plasma was collected and analysed for CRP and IL-6 by Luminex. A) Regulation of CRP. B) Regulation of IL-6 (FIG. 14).

[5] = integrin inhibitors, 24 h to 72 h
[6] = integrin inhibitors, 6 h to 72 h
[7] = HUVEC on vitronectin, 24 h, DI-17E6 0.01 to 10 μg/mL, cilengitide 0.01 to 10 μM

| Molecule | Activin A level in HUVEC supernatants (activin A) | STC-1 protein level in HUVEC supernatants (STC-1; [5]) | MCP-1 level in HUVEC supernatants (MCP-1) | PDGF-BB level in HUVEC supernatants (PDGF-BB) | IL-8 level in HUVEC supernatants (IL-8; [6]) | ADAMTS1 protein level in HUVEC supernatants (ADAMTS1) | EDN1 level in HUVEC supernatants (EDN1; [6]) | phosphorylation of FAK (FAK) | phosphorylation of MAPK (ERK1/2) | other results |
| --- | --- | --- | --- | --- | --- | --- | --- | --- | --- | --- |
| CNC(=O)c1cc(Oc2ccc(NC(=O)Nc3ccc(Cl)c(C(F)(F)F)c3)cc2)ccn1 [Sorafenib] |  |  |  |  |  |  |  |  |  | STC-1 protein level in HUVEC supernatants (STC-1; kinase inhibitors, 6 h to 48 h): down-regulated; additional patients who experienced tumor shrinkage [1]: 9%; patients who experienced stable disease for at least 4 months [1]: 43%; IL-8 level in HUVEC supernatants (IL-8; kinase inhibitors, 6 h to 48 h): reduced protein levels; tumor angiogenesis, as measured by anti-CD31 immunostaining [2]: significant inhibition of tumor angiogenesis; EDN1 level in HUVEC supernatants (EDN1; kinase inhibitors, 6 h to 48 h): up-regulated; side effect: diarrhea [3]: 33%; side effect: fatigue [3]: 26%; side effect: hand-foot skin reactions [3]: 27%; side effect: hypertension [3]: 11%; side effect: rash [3]: 34% |
| CC(C)[C@H]1C(=O)N[C@@H](CCCN=C(N)N)C(=O)NCC(=O)N[C@@H](CC(=O)O)C(=O)N[C@H](Cc2ccccc2)C(=O)N1C [cilengitide, cyclo-(Arg-Gly-Asp-DPhe-NMeVal)] | down-regulated | up-regulated | down-regulated | down-regulated | down-regulation | up-regulated | down-regulated | inhibited | inhibited | Genes down-regulated in response to treatment (RNA level) (HUVEC): INHBA, EDN1, FST, DKK4, BMP4, MCP1, HHIP, NTN4, PHLDB2, PVR, CYR61, AUTS2, MERTK, FSTL3, APLN, PTX3, ANGPTL4, CTGF, SPOCK, IL8, NRG1, DKK3, CD44, BCHE, BDNF, FBXO4, EFEMP1, STC2; Genes up-regulated in response to treatment (RNA level) (HUVEC): ADAMTS 9, DAF, STC1, ADAMTS1, LAMAS, TCN2, SRPX, ADAM15, GUSB, HYAL2, PLAUR, CD40, NOTCH1, ENPP4; activation of FAK (ratio of phosphorylated to total) (FAK; [7]): blocked activation; activation of ERK1/2 (ratio of phosphorylated to total) (ERK1/2; [7]): blocked activation |
| DI-17E6: antibody (CAS No: 1105038-73-0) having the biological characteristics of monoclonal mouse antibody 17E6, inhibits the αv-integrin subunit; improved immunogenicity (antibody, chains of the INN, looked up, V domains shown) VH: QVQLQQSGGELAKPGASVKVSCKASGYTFSSFWMHWVRQAPGQGLEWIGYINPRSGYTEYNEIFRDKATMTTDTSTSTAYMELSSLRSEDTAVYYCASFLGRGAMDYWGQGTTVTVSS VL: DIQMTQSPSSLSASVGDRVTITCRASQDISNYLAWYQQKPGKAPKLLIYYTSKIHSGVPSRFSGSGSGTDYTFTISSLQPEDIATYYCQQGNTFPYTFGQGTKVEIK | down-regulated | up-regulated | down-regulated | down-regulated | up-regulated | up-regulated | down-regulated | inhibited | inhibited | angiogenesis (hemoglobin content in the matrigel plugs) [4]: blocked the formation of new blood vessel at all doses; plasma IL-6 (IL-6): up-regulated; plasma CRP (CRP): up-regulated |
